According to ChEMBL document CHEMBL1201862, “PubChem BioAssay data set” (2004):
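Five concentrations, 48 hours, 96-well plates. GI50 is the concentration that inhibits growth by half.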 Activity calls are given as the source filed them. Rule as the data show it: active = GI50 up to about 1.1 µM and inactive = higher.

Key:
Assay in all cases: NCI anticancer screen, dose series, 48 h
SK-MEL-2 = system: SK-MEL-2
OVCAR-4 = system: OVCAR-4
SN12C = system: SN12C
SK-MEL-5 = system: SK-MEL-5
786-0 = system: 786-0
LOX IMVI = system: LOX IMVI
EKVX = system: EKVX
SF-295 = system: SF-295
TK-10 = system: TK-10
SNB-75 = system: SNB-75
HOP-92 = system: HOP-92
UO-31 = system: UO-31
HT-29 = system: HT-29
Malme-3M = system: Malme-3M
OVCAR-8 = system: OVCAR-8
CAKI-1 = system: CAKI-1
NCI-H522 = system: NCI-H522
SF-539 = system: SF-539
K562 = system: K562

Measured: GI50

CCCCCCC(=O)C/C(=N/NC(N)=S)C(=O)NC1C2CC3CC(C2)CC1C3 (stereo not drawn)
inactive: SK-MEL-2 > 100 µM | OVCAR-4 > 100 µM | SN12C > 100 µM | SK-MEL-5 > 100 µM | 786-0 > 100 µM | LOX IMVI > 100 µM | EKVX > 100 µM | SF-295 > 100 µM | TK-10 > 100 µM | SNB-75 > 100 µM | HOP-92 86.1 µM | UO-31 > 100 µM | HT-29 > 100 µM | Malme-3M > 100 µM | OVCAR-8 > 100 µM

CC12N=NNC1C(=O)NC2=O (stereo not drawn)
inactive: SK-MEL-2 > 100 µM | CAKI-1 > 100 µM | OVCAR-4 > 100 µM | NCI-H522 > 100 µM | SN12C > 100 µM | SF-539 > 100 µM | SK-MEL-5 > 100 µM | 786-0 > 100 µM | LOX IMVI > 100 µM | EKVX > 100 µM | SF-295 > 100 µM | TK-10 > 100 µM | SNB-75 > 100 µM | K562 > 100 µM | HOP-92 > 100 µM | UO-31 > 100 µM | HT-29 > 100 µM | OVCAR-8 > 100 µM

CNC(=S)N/N=C(\C)c1cc(OC)c(OC)cc1O
inactive: SK-MEL-2 > 100 µM | CAKI-1 > 100 µM | SN12C > 100 µM | SF-539 > 100 µM | SK-MEL-5 > 100 µM | 786-0 > 100 µM | EKVX > 100 µM | TK-10 > 100 µM | SNB-75 > 100 µM | K562 7.29 µM | UO-31 > 100 µM | HT-29 > 100 µM | Malme-3M > 100 µM | OVCAR-8 > 100 µM

OCC12C3C4C1C1C2C3C41CO (stereo not drawn)
inactive: CAKI-1 > 100 µM | OVCAR-4 > 100 µM | SN12C > 100 µM | SF-539 > 100 µM | SK-MEL-5 > 100 µM | 786-0 > 100 µM | LOX IMVI > 100 µM | EKVX > 100 µM | SF-295 > 100 µM | TK-10 > 100 µM | K562 > 100 µM | HOP-92 > 100 µM | UO-31 > 100 µM | HT-29 > 100 µM | Malme-3M > 100 µM | OVCAR-8 > 100 µM

CC1(C)COC(c2c(-c3ccccc3)noc2C[S+]([O-])c2ccccc2)=N1 (stereo not drawn)
inactive: SK-MEL-2 24.5 µM | CAKI-1 61.5 µM | OVCAR-4 62.8 µM | NCI-H522 36.1 µM | SN12C 31.3 µM | SF-539 59.6 µM | SK-MEL-5 38.3 µM | 786-0 76.6 µM | LOX IMVI 41 µM | EKVX 96.6 µM | SF-295 34.6 µM | TK-10 > 100 µM | SNB-75 29.6 µM | K562 40.9 µM | UO-31 29.2 µM | HT-29 38.5 µM | Malme-3M 46.1 µM | OVCAR-8 37.3 µM

COc1ccc(CN(CCN(C)C)c2ccccn2)cc1.Cn1c(=O)c2[nH]c(Br)nc2n(C)c1=O
inactive: SK-MEL-2 > 100 µM | CAKI-1 > 100 µM | NCI-H522 > 100 µM | SN12C > 100 µM | SF-539 > 100 µM | SK-MEL-5 > 100 µM | 786-0 > 100 µM | SF-295 > 100 µM | TK-10 > 100 µM | SNB-75 23.3 µM | K562 94 µM | HOP-92 22.3 µM | UO-31 > 100 µM | HT-29 > 100 µM | Malme-3M > 100 µM | OVCAR-8 > 100 µM

O=C(CC1Sc2ccccc2NC1=O)Nc1cccc(Cl)c1 (stereo not drawn)
inactive: SK-MEL-2 39 µM | CAKI-1 33 µM | OVCAR-4 44.8 µM | SN12C 48.2 µM | SF-539 72.9 µM | SK-MEL-5 40.1 µM | 786-0 39.4 µM | LOX IMVI 20.3 µM | EKVX 22.5 µM | SF-295 59.3 µM | TK-10 41.9 µM | SNB-75 32.4 µM | K562 51.8 µM | HOP-92 25.5 µM | UO-31 28.8 µM | HT-29 57.3 µM | Malme-3M 55.2 µM | OVCAR-8 26.2 µM

CCOC(=O)NC(=O)c1cn(CCOC(=O)NCCCCCCNC(=O)OCCn2cc(C(=O)NC(=O)OCC)c(=O)[nH]c2=O)c(=O)[nH]c1=O
inactive: SK-MEL-2 > 100 µM | CAKI-1 > 100 µM | OVCAR-4 > 100 µM | NCI-H522 > 100 µM | SN12C > 100 µM | SK-MEL-5 > 100 µM | 786-0 > 100 µM | LOX IMVI > 100 µM | EKVX > 100 µM | SF-295 > 100 µM | SNB-75 > 100 µM | K562 > 100 µM | UO-31 > 100 µM | HT-29 > 100 µM | Malme-3M > 100 µM | OVCAR-8 > 100 µM

O=C(NN1C(=O)C(Cl)C1c1c(O)ccc2ccccc12)c1ccccc1O (stereo not drawn)
inactive: SK-MEL-2 > 100 µM | OVCAR-4 > 100 µM | NCI-H522 > 100 µM | SN12C > 100 µM | SF-539 > 100 µM | SK-MEL-5 > 100 µM | 786-0 > 100 µM | LOX IMVI > 100 µM | SF-295 > 100 µM | TK-10 > 100 µM | SNB-75 > 100 µM | K562 > 100 µM | UO-31 > 100 µM | HT-29 > 100 µM | Malme-3M > 100 µM | OVCAR-8 > 100 µM

Cc1cc2c(C)nn(Cc3ccc(Cl)cc3Cl)c2c(C#N)c1C
inactive: SK-MEL-2 > 100 µM | SN12C > 100 µM | SF-539 > 100 µM | 786-0 > 100 µM | LOX IMVI > 100 µM | EKVX > 100 µM | SF-295 50.4 µM | TK-10 > 100 µM | SNB-75 89.9 µM | HOP-92 35.9 µM | UO-31 > 100 µM | HT-29 78.5 µM | Malme-3M > 100 µM | OVCAR-8 > 100 µM

CN1CCc2c1nc(-c1ccc(Cl)cc1)c1c2N(C)CC1
inactive: SK-MEL-2 > 100 µM | CAKI-1 6.44 µM | OVCAR-4 28.4 µM | SN12C 23.1 µM | SF-539 15.4 µM | SK-MEL-5 10.5 µM | 786-0 > 100 µM | LOX IMVI 5.01 µM | EKVX 35.1 µM | SF-295 14.1 µM | TK-10 29.2 µM | SNB-75 29.6 µM | K562 9.29 µM | UO-31 10.7 µM | HT-29 4.56 µM | Malme-3M > 100 µM | OVCAR-8 25.5 µM

Cc1cc(C)c(C(=O)OC(c2ccccc2)C(c2ccccc2)N2CCOCC2)c(C)c1 (stereo not drawn)
inactive: SK-MEL-2 > 100 µM | CAKI-1 > 100 µM | NCI-H522 > 100 µM | SN12C > 100 µM | SF-539 > 100 µM | 786-0 > 100 µM | LOX IMVI > 100 µM | EKVX > 100 µM | SF-295 > 100 µM | TK-10 > 100 µM | SNB-75 > 100 µM | K562 > 100 µM | UO-31 > 100 µM | HT-29 > 100 µM | Malme-3M > 100 µM
